These results are taken from article PMC9909341, “TLQP-21 is a low potency partial C3aR activator on human primary macrophages” (Frontiers in Immunology, 2023).

For one test, the system named is C5aR1. The note with it: at the concentration used (5 µM); ref [20]; cited from earlier work. The text has this: (§1) However, only mouse TLQP-21 was used in these studies and to the best of our knowledge, no data is available for the potential activity of TLQP-21 in human immune cells. […] However, by contrast to hC3a, the agonistic activity of TLQP-21 peptides was markedly weaker in HMDMs relative to CHO-C3aR, with EC50 values in the high micromolar ...

In a further test the test system is C3aR. Particulars: at the concentration used (5 µM); ref [20]; cited from earlier work.
Excerpt: as §1

A further test has as its system human C3aR (HMDMs). The experiment in a line: inhibition of ligand-induced ERK1/2 phosphorylation by SB290157 in HMDMs. The test is classed as cell-based. The note with it: 5 µM SB290157, 30 min pre-treatment. An excerpt:
HMDMs were generated and cultured as previously described ([20]), with experiments approved by The University of Queensland Human Research Ethics Committee. Briefly, human buffy coat blood from anonymous healthy donors was obtained through the Australian Red Cross Blood Service (Brisbane, Australia). Human CD14+ monocytes were isolated from blood using Lymphoprep density centrifugation (STEMCELL, Melbourne, Australia) followed by CD14+ MACS magnetic bead separation (Miltenyi Biotec, Sydney, Australia). The isolated monocytes were differentiated for 7 days in Iscove’s Modified Dulbecco’s Medium supplemented with 10% FBS, 100 IU/ml penicillin, 100 μg/ml streptomycin and 15 ng/ml recombinant human macrophage colony stimulating factor (BioLegend, San Diego, USA) on 10 mm square dishes (Bio-strategy, Brisbane, Australia). Non-adherent cells were removed by washing with DPBS, and the adherent differentiated HMDMs were harvested by gentle scraping.
Ligand-induced ERK1/2 phosphorylation was assessed using the AlphaLISA Surefire Ultra p-ERK1/2 (Thr202/Tyr204) kit (PerkinElmer, Melbourne, Australia) following the manufacturer’s protocol as previously described ([18], [20], [22]). Briefly, CHO-K1, CHO-C3aR, CHO-C5aR1, HMDMs (50,000/well) or BMDMs (90,000/well) were seeded in tissue culture-treated 96-well plates (Corning, Corning, USA) for 24 h and serum-starved overnight. All ligand dilutions were prepared in serum-free medium (SFM) containing 0.1% BSA. For inhibition assays, cells were pre-treated with the following ligands (5 µM SB290157, or respective concentrations of hC3a, mC3a, hC5a, hTLQP-21, and mTLQP-21) or the solvent-only control for 30 min before agonist (hC3a, hTLQP-21 and mTLQP-21) addition. The concentration and identity of the ligands are described in detail in the figure legends. For stimulation, cells were treated with ligands at the indicated concentrations for 10 min at RT and then immediately lysed using AlphaLISA lysis buffer on a microplate shaker (450 rpm, 10 min). For the detection of phospho-ERK1/2 content, cell lysate (5 μL/well) was transferred to a 384-well ProxiPlate (PerkinElmer, Melbourne, Australia) and added to the donor and acceptor reaction mix (2.5 μL/well, respectively), followed by a 2-h incubation at RT in the dark. On a Tecan Spark 20M (Tecan, Männedorf, Switzerland), the plate was measured using standard AlphaLISA settings.
Figure 3 Agonistic and antagonistic activities of hTLQP-21 and mTLQP-21 in human monocyte-derived macrophages. […] The phospho-ERK1/2 content in the cell lysate was measured and normalised to the maximum hC3a/hC5a-induced levels before being combined. […]

Test [1] has as its target T1, Human complement C3a receptor, endogenous on human monocyte-derived macrophages (human (endogenous in HMDMs)) (UniProt Q16581).
T1 sequence: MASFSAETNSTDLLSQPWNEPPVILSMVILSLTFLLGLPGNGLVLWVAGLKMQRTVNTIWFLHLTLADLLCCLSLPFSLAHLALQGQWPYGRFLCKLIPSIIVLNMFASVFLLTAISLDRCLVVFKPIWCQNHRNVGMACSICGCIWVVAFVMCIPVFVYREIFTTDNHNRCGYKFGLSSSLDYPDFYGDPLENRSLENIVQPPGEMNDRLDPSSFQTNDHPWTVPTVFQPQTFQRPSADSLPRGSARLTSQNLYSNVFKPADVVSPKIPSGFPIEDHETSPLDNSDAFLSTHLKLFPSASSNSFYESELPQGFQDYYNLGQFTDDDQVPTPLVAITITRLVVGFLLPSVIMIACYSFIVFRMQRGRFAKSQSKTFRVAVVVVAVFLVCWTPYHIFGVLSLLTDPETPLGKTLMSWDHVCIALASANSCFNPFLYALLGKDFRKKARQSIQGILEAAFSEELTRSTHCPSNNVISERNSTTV

Test [2] addresses T2, Human complement C3a receptor, stably expressed on CHO cells (human) (UniProt Q16581).
T2 sequence: T1 sequence

Test [3] addresses Endogenous C3aR of CHO-K1 cells (Chinese hamster (endogenous in CHO-K1)).
Test [4] addresses T1, Human complement C3a receptor, endogenous on human monocyte-derived macrophages (human (endogenous in HMDMs)). This is another data set of the same source.
Test [5] has as its target T2, Human complement C3a receptor, stably expressed on CHO cells (human). The source holds these as a separate data set.

Regarding `NC(N)=NCCC[C@H](NC(=O)COCC(c1ccccc1)c1ccccc1)C(=O)O` [SB290157], the “agonist activity of SB290157 on C5aR1” value in the test with C5aR1 was “does not exhibit any detectable agonist activity”. Besides, in the test with C3aR, the “agonist activity of SB290157 on C3aR” value was “does not exhibit any detectable agonist activity”. Besides, the “inhibition of hTLQP-21 and mTLQP-21 induced ERK signalling” value in the test with human C3aR (HMDMs) (HMDMs, n = 4 donors) is 70-90%. The “remaining C3a-induced ERK signalling with SB290157” value with human C3aR (HMDMs) (agonist C3a, HMDMs) is reported as “less than 20 % of the untreated level”. Also, in the test with human C3aR (HMDMs) (agonist hTLQP-21), the “remaining hTLQP-21 induced ERK activation with SB290157” value is given as 29 % of the control level. The “remaining mTLQP-21 induced ERK activation with SB290157” value in the test with human C3aR (HMDMs) (agonist mTLQP-21) was 16 % of the control level.
With “Human C3a (from UniProt P01024 672-748) (ligand)”, the C3a-induced ERK signalling in HMDMs pre-treated with the C3aR antagonist SB290157, % of the untreated level (% of the untreated level) in test [1] is under 20. This compound returned a relative efficacy of C3a-induced ERK signalling in CHO-C3aR cells, fold baseline (fold baseline) in test [2] of 7.3. This compound also displayed a relative efficacy of C3a-induced ERK signalling in CHO-K1 cells, fold baseline (fold baseline) in test [3] of 2.7. In addition, in test [4], the EC50 (nM) of ERK1/2 phosphorylation in HMDMs was 0.11 nM. Also, the EC50 (nM) of ERK1/2 phosphorylation in CHO-C3aR cells in test [5] is 0.15 nM.
